Laboratory results reported in ChEMBL document CHEMBL5303304, “EUbOPEN Chemogenomics Library - IncuCyte” (2023).

Assays:
Format in all cases: toxicity, cell-based
HEK-293T = assay: Incucyte cell viability with HEK293T; settings: human, 10 µM, compound concentration 10 uM
U2OS = assay: Incucyte cell viability with U2OS; settings: human, 10 µM, compound concentration 10 uM
Fibroblast = assay: Incucyte cell viability with human fibroblast; settings: 10 µM, compound concentration 10 uM
Further: unitless GR value; below 1 slowed growth and below 0 cell loss.

| Structure (SMILES) | Growth Rate (HEK-293T; 6 h, replicate number 1) | Growth Rate (HEK-293T; 6 h, replicate number 2) | Growth Rate (HEK-293T; 12 h, replicate number 1) | Growth Rate (HEK-293T; 12 h, replicate number 2) | Growth Rate (HEK-293T; 18 h, replicate number 1) | Growth Rate (HEK-293T; 18 h, replicate number 2) | Growth Rate (HEK-293T; 24 h, replicate number 1) | Growth Rate (HEK-293T; 24 h, replicate number 2) | Growth Rate (U2OS; 0 h, replicate number 1) | Growth Rate (U2OS; 24 h, replicate number 1) | Growth Rate (Fibroblast; 6 h, replicate number 1) | Growth Rate (Fibroblast; 12 h, replicate number 1) | Growth Rate (Fibroblast; 12 h, replicate number 2) | Growth Rate (Fibroblast; 18 h, replicate number 2) | Growth Rate (Fibroblast; 24 h, replicate number 2) | Growth Rate (U2OS; 12 h, replicate number 2) | Growth Rate (U2OS; 18 h, replicate number 2) | Growth Rate (U2OS; 24 h, replicate number 2) | Growth Rate (Fibroblast; 0 h, replicate number 1) | Growth Rate (HEK-293T; 0 h, replicate number 1) | further results |
| --- | --- | --- | --- | --- | --- | --- | --- | --- | --- | --- | --- | --- | --- | --- | --- | --- | --- | --- | --- | --- | --- |
| CCN(CC)CCO[C@H]1CC[C@@]2(C)C(=CC[C@@H]3[C@@H]2CC[C@]2(C)C(=O)CC[C@@H]32)C1.Cl | 0.35 | 0.24 | 0.32 | 0.31 | 0.45 | 0.42 | 0.53 | 0.52 | 0.56 | 0.91 | 0.34 | -0.34 | -0.05 | -0.06 | -0.11 |  |  |  |  |  | Growth Rate (U2OS; 6 h, replicate number 1): 0.77; Growth Rate (Fibroblast; 18 h, replicate number 1): -0.18; Growth Rate (Fibroblast; 24 h, replicate number 1): -0.25 |
| CCOC(=O)C1=C(C)NC(C)=C(C(=O)OC)C1c1cccc([N+](=O)[O-])c1 (centres undefined) [NITRENDIPINE] | 0.11 | -0.36 |  | 0.63 |  | 0.99 |  | 0.95 | 0.22 | 0.91 |  |  |  |  | 0.95 | 0.71 | 0.86 | 0.9 | -0.46 |  | Growth Rate (U2OS; 0 h, replicate number 2): -0.99; Growth Rate (U2OS; 6 h, replicate number 1): 0.47; Growth Rate (U2OS; 6 h, replicate number 2): 0.51; Growth Rate (U2OS; 12 h, replicate number 1): 0.89; Growth Rate (Fibroblast; 0 h, replicate number 2): -0.98; Growth Rate (Fibroblast; 18 h, replicate number 1): -0.02 |
| CCn1c(-c2nonc2N)nc2ccccc21 [GW549034X] |  |  |  |  |  |  |  |  | -1 |  |  |  |  |  |  |  | 0.97 | 0.93 | -1 | -1 | Growth Rate (HEK-293T; 0 h, replicate number 2): -0.14; Growth Rate (Fibroblast; 0 h, replicate number 2): -0.96 |
| O=C(Nc1cc(-c2cn[nH]c2)ccc1N1CCOCC1)c1ccc(-c2ccc3ncccc3c2)o1 | -0.44 | -0.29 | -0.07 | -0.19 | 0.02 | 0.04 | -0.01 | 0.06 |  | 0.44 | -1 |  | 0.42 | 0.64 | 0.77 | 0.75 |  | 0.4 | -0.23 | 0.85 | Growth Rate (HEK-293T; 0 h, replicate number 2): 0.49; Growth Rate (U2OS; 0 h, replicate number 2): -0.65; Growth Rate (U2OS; 18 h, replicate number 1): 0.39 |
| Cc1cc(CN)cc(C)c1-c1ncn(C)c1-c1cncn1C.Cl |  |  |  |  | 0.98 |  |  |  |  |  | 0.96 |  | 0.59 | 0.77 | 0.86 | 0.69 | 0.99 |  | -1 | -0.38 | Growth Rate (HEK-293T; 0 h, replicate number 2): 0.26; Growth Rate (Fibroblast; 6 h, replicate number 2): -0.33 |
| C1CCC(NC2CCCCC2)CC1.Cc1cc(Cl)ccc1S(=O)(=O)NC[C@H]1C2CCC(CC2)[C@@H]1/C=C\CCCC(=O)O |  |  |  |  |  |  |  |  |  |  | 0.25 |  | 0.97 | 0.9 |  |  | 0.99 |  |  | 0.61 | Growth Rate (Fibroblast; 0 h, replicate number 2): -0.12; Growth Rate (Fibroblast; 6 h, replicate number 2): 0.75 |
| CC(=O)Nc1nc2c(Oc3cc(-c4ccc(C(F)(F)F)cc4)ncn3)cccc2s1 [AMG-517] | 0.63 | 0.69 | 0.82 |  | 0.67 |  | 0.89 | 0.99 |  | 0.86 | -0.08 | -1 | 0.8 |  |  | 0.88 | 0.91 | 0.96 | -0.1 | 0.87 | Growth Rate (U2OS; 0 h, replicate number 2): -0.37; Growth Rate (U2OS; 6 h, replicate number 1): 0.79; Growth Rate (U2OS; 6 h, replicate number 2): 0.81; Growth Rate (U2OS; 12 h, replicate number 1): 0.8; Growth Rate (Fibroblast; 0 h, replicate number 2): -1; Growth Rate (Fibroblast; 6 h, replicate number 2): -0.6 |
| Cl.Cl.NC1(c2ccc(-c3nc4ccn5c(=O)[nH]nc5c4cc3-c3ccccc3)cc2)CCC1 | -0.64 | -0.68 | -0.64 | -0.42 | -0.54 | -0.27 | -0.48 | -0.24 |  | 1 | -0.87 | -1 | -0.83 | -0.54 | -0.32 |  |  |  |  |  | Growth Rate (Fibroblast; 6 h, replicate number 2): -1 |
| CCOC(=O)N1CCC(CN(Cc2ccc(Cl)cc2)Cc2ccc([N+](=O)[O-])s2)C1 (centres undefined) [SR9009] | 0.39 | 0.23 | 0.42 | 0.27 | 0.48 | 0.28 | 0.41 | 0.35 | -0.35 |  | 0.43 | 0.41 | 0.2 | 0.38 | 0.39 |  |  |  |  |  | Growth Rate (U2OS; 12 h, replicate number 1): 0.94; Growth Rate (Fibroblast; 18 h, replicate number 1): 0.3; Growth Rate (Fibroblast; 24 h, replicate number 1): 0.48 |
